Experimental data as given in patent US11072592B2, “Small molecules that enable cartilage rejuvenation” (The Regents of the University of California, priority 2015, dated 2021).

Key:
p-STAT3/c-MYC = test: Secondary screening for effects on p-STAT3/c-MYC protein levels; type: cell-based; settings: secondary screening of 75 compounds
Experimental: In a clinical setting, treatment with exogenous growth factors would present a difficult and expensive strategy. To address this, our group designed a high throughput screen to identify small molecule modulators of chondrogenic differentiation based on the prevention of the hypertrophy-associated marker collagen X (COLX). […] Importantly, the stimulatory effect of CRMs on p-STAT3 and c-MYC was reversible; protein levels of both p-STAT-3 and c-MYC decreased 48 hours after CRM-398 or -423 withdrawal (data not shown). Identification of such compounds can not only allow us to control differentiation of chondrocytes, but also manipulate the expression of STAT3 and c-MYC to achieve rejuvenation of adult chondrocytes. CRM-398 and -423 can be tested in parallel with LIF and their effects on adult articular chondrocyte activation can be assessed as described herein.
A strategy for screening for molecules with anti-differentiation effects includes observation of primary limb mesenchyme from mCherry-COL10A1 mice. The screening strategy identifies molecules with STAT3 and c-Myc modulatory activity. FIG. 14 depicts exemplary results for a screening conducted on 170,000 compounds, resulting in 469 hits. FIG. 15 depicts percentage positive z-scores for the 469 compounds identified. FIG. 16 depicts a further screening analysis of the previously identified 469 hit compounds, resulting in 75 refined hits. […]

human fetal chondrocytes = test: Chondrocyte terminal differentiation (COLX expression, alkaline phosphatase) in human fetal chondrocytes; type: cell-based
Text: From a therapeutic and regulatory standpoint, small molecules represent a highly attractive modality for manipulating cell biology. To this end, we conducted a high throughput screen to discover small molecules that regulate chondrocyte differentiation. As a readout for the screen, we chose mice carrying a transgenic mCherry reporter (Maye et al., 2011) for expression of Col10a1 (COL10). COL10 expression, along with alkaline phosphatase (AP) levels, increases during later stages of chondrocyte differentiation, concomitant with withdrawal from the cell cycle. […] To conduct the screen, total limb cells were isolated from Col10a1-mCherry transgenic embryos and cultured in the presence of BMP-4, a driver of chondrocyte hypertrophy (Wu et al., 2013); 170,000 compounds were assayed for their ability to decrease the mCherry signal in live cells under these conditions (FIG. 27A). Out of this first dataset, 469 molecules were selected for confirmatory screening. This number was further reduced to 75 verified compounds that blocked increases in mCherry signal (FIG. 27B). Additional vetting led to the selection of Regulator of Cartilage Growth and Differentiation (RCGD) 423 as the primary compound for continued characterization. The ability of RCGD 423 to inhibit COL10 expression in human cells was confirmed, and AP activity was employed as a supplemental readout of chondrocyte differentiation.
Cells were fixed with 3.7% formaldehyde and stained for alkaline phosphatase activity with SigmaFast 5-bromo-4-chloro-3-indolyl phosphate/4-nitro blue tetrazolium (BCIP/NBT) (Sigma Aldrich, St. Louis, Mo.) according to the manufacturer's protocol.

BMPR1B+ chondrocytes = test: Retention of BMPR1B+ chondrocytes in culture (flow cytometry); type: cell-based, pig
Experimental: FIG. 35. RCGD 423 Preserves BMPR1B+ Chondrocytes in Culture. Adult pig chondrocytes were cultured in the presence of various cytokines or RCGD 423 and the number of cells expressing BMPR1B were quantitated using flow cytometry. Know mitogens for cartilage, including PDGF-BB and FGF2, promoted dramatic loss of BMPR1B^+ cells. In contrast, RCGD 423 and LIF acted to maintain cells with the BMPR1B+ phenotype.
BMPR1B+LIFR+ human adult articular chondrocytes were sorted using FACS and deposited in 96-well culture plates at density 10,000 cells per well in DMEM/F12 culture medium (Invitrogen) supplemented with 1% FBS. Growth factors or RCGD 423 were added at the time of plating. After 1, 3 and 7 days cultures were re-analyzed with FACS using an antibody against BMPR1B.

pSTAT3 and MYC [1] = test: Duration of pSTAT3/MYC induction after wash out or release from PLGA microspheres; type: cell-based, pig; settings: drug applied 24 hours, then washed out
Experimental: (§1) FIGS. 31A-31D. […] (FIG. 31A) Experiments were conducted to test the tissue reparative function of compounds disclosed herein. FIG. 31A depicts histograms of amounts of glycosaminoglycans (GAGs) and collagen 2 observed under control conditions and after administration of RCGD 423. (FIG. 31B) The duration of the effects elicited by RCGD 423 was determined by applying the drug for 24 hours and then washing it out. Protein levels of pSTAT3 and MYC were determined at the indicated time points after wash out; histone H3 was used as a loading control. (FIG. 31C) Protein levels of MYC and pSTAT3 in adult pig articular chondrocytes were used to determine the time frame in which release of RCGD 423 from PLGA microspheres reaches efficacious levels. Supernatant from drug-loaded PLGA microspheres was harvested at the indicated intervals and applied to pig chondrocytes. Histone H3 was used as a loading control. (FIG. 31D) Repair in a tissue context was assessed by removing small explants from a biopsy punch of adult pig articular cartilage. Matrigel with or without RCGD 423-loaded microspheres was applied to the defects. Safranin O staining was performed on sections of explants following 5 weeks of culture; border of defect and intact tissue is shown.
(§2) We also tested whether RCGD 423 could initiate healing of small defects generated on the surface of intact articular cartilage. […]

[2] = tested on: pig articular cartilage biopsy punches with defects; test: Repair of defects in adult pig articular cartilage biopsy punches in vitro; type: cell-based; settings: Matrigel with microspheres, 5 weeks of culture
Experimental: as §1, §2

[3] = tested on: human adult articular chondrocytes; test: RNA-Seq of human adult articular chondrocytes; type: cell-based; settings: n=7
adult chondrocytes = test: Collagen 2 production by adult chondrocytes; type: cell-based; settings: compared with control (DMSO)
Text: FIGS. 21A-21B. […] (FIG. 21A) cell sorting results for isotype (left), BMPR18^neg (middle), and BMPR18+ cells (right). (FIG. 21B) CRM-423 (right panel) stimulates collagen 2 product by adult chondrocytes compared with control (DMSO, left panel).
Cmpd 423 stimulates collagen 2 product by adult chondrocytes (FIG. 21B).

pSTAT3 and MYC [4] = test: pSTAT3 and MYC in other cells/tissues; type: cell-based; settings: embryonic stem cells and the heart; unpublished preliminary data
Text: Based on the functional properties elicited by RCGD 423, we propose that it (or compounds functionally similar to it) may represent core components of treatment regimens for articular cartilage injury.

alkaline phosphatase (AP) levels (human fetal chondrocytes; fetal cartilage treated with BMP-4): significantly reduced | terminal differentiation (COLX expression) (human fetal chondrocytes; human fetal chondrocytes, 1 μM): significant inhibition
Compound: Brc1ccc(Nc2nc(-c3ccccc3)cs2)cc1 [RCGD 423, N-(4-Bromophenyl)-4-phenyl-1,3-thiazol-2-amine]
effects on p-STAT3/c-MYC protein levels (p-STAT3/c-MYC): most prominent effects | COL10 expression in human cells (human fetal chondrocytes): inhibit | BMPR1B+ chondrocytes in culture (BMPR1B+ chondrocytes): helped maintain | time after drug removal at which increases in pSTAT3 and MYC are observed (pSTAT3 and MYC [1]): up to 7 days | repair / remodeling of cartilage defects [2]: promotes cartilage repair | enriched transcripts (increased more than 1.5-fold in 4/7 replicates) [3]: 1,244 | collagen 2 production by adult chondrocytes (adult chondrocytes): stimulates | pSTAT3 and MYC proteins in other cells/tissues (pSTAT3 and MYC [4]): promotes increases
